Measurements as given in patent US6342602B1, “Aryl or heteroaryl amides of tetrahydronaphthalene, chroman, thichroman and 1,2,3,4-tetrahydroquinolinecarboxlic acids, having an electron withdrawing substituent in the aromatic or heteroaromatic moiety, having retinoid-like biological activity” (Allergan Sales, Inc., priority 1995, dated 2002).
pKd: −log10 of the molar value. Where two headings read alike, the source gives them in different places.

Assays:
Test in all cases: Ligand binding assay
[1] = molecular target: T1, RARΓ (Homo sapiens, UniProt P13631)
T1 construct: made in house; used as extract protein
T1 sequence (P13631 1-454): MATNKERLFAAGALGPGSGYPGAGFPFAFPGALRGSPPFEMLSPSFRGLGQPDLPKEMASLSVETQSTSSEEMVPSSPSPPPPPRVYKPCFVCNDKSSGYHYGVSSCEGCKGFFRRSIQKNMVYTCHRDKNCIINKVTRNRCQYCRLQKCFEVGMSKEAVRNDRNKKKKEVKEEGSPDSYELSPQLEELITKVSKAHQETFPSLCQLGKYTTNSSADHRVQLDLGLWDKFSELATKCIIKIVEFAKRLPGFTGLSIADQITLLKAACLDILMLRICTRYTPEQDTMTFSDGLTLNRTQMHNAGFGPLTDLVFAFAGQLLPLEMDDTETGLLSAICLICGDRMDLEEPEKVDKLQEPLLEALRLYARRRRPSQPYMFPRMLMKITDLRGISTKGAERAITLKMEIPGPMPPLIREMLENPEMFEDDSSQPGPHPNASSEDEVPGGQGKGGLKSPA
Experimental: (§1) A holoreceptor transactivation assay and a ligand binding assay which measure the ability of the compounds of the invention to bind to the several retinoid receptor subtypes, respectively, are described in published PCT Application No. WO WO93/11755 (particularly on pages 30-33 and 37-41) published on Jun. 24, 1993, the specification of which is also incorporated herein by reference. A description of the ligand binding assay is also provided below.
(§2) All binding assays were performed in a similar fashion. All six receptor types were derived from the expressed receptor type (RAR α, β, τ and RXR α, β, τ) expressed in Baculovirus. Stock solutions of all compounds were prepared as 10 mM ethanol solutions and serial dilutions carried out into 1:1 DMSO; ethanol. Assay buffers consisted of the following for all six receptor assays: 8% glycerol, 120 mM KCl, 8 mM Tris, 5 mM CHAPS 4 mM DTT and 0.24 mM PMSF, pH-7.4@room temperature.
(§3) All receptor biding assays were performed in the same manner. The final assay volume was 250 μl and contained from […] of extract protein depending on receptor being assayed along with 5 nM of [^3H) alltrans retinoic acid or 10 nM [^3H) 9-cis retinoic acid and varying concentrations of competing ligand at concentrations that ranged from 0-10^−5 M. The assays were formatted for a 96 well minitube system. Incubations were carried out at 4° C. until equilibrium was achieved. Non-specific binding was defined as that binding remaining in the presence of 1000 nM of the appropriate unlabeled retinoic acid isomer. At the end of the incubation period, 50 μl of 6.25% hydroxyapitite was added in the appropriate wash buffer. The wash buffer consisted of 100 mM KCl, 10 mM Tris and either 5 mM CHAPS (RXR α, β, τ) or 0.5% Triton X-100 (RAR α, β, τ). The mixture was vortexed and incubated for 10 minutes at 4° C., centrifuged and the supernatant removed. The hydroxyapitite was washed three more times with the appropriate wash buffer. The receptor-ligand complex was adsorbed by the hydroxyapitite. The amount of receptor-ligand complex was determined by liquid scintillation counting of hydroxyapitite pellet.
(§4) After correcting for non-specific binding, IC50 values were determined. […] The IC50 value was determined graphically from a loglogit plot of the data. The Kd values were determined by application of the ChengPrussof equation to the IC50 values, the labeled ligand concentration and the Kd of the labeled ligand.
(§5) The results of ligand binding assay are expressed in Kd numbers. (See Cheng et al. Biochemical Pharmacology Vol. 22 pp 3099-3108, expressly incorporated herein by reference.)

[2] = molecular target: T2, RARβ (Homo sapiens, UniProt P10826); settings: receptor expressed in Baculovirus; competition with [3H] retinoic acid; Cheng-Prusoff from IC50
T2 construct: made in house; used as extract protein
T2 sequence (P10826 1-455): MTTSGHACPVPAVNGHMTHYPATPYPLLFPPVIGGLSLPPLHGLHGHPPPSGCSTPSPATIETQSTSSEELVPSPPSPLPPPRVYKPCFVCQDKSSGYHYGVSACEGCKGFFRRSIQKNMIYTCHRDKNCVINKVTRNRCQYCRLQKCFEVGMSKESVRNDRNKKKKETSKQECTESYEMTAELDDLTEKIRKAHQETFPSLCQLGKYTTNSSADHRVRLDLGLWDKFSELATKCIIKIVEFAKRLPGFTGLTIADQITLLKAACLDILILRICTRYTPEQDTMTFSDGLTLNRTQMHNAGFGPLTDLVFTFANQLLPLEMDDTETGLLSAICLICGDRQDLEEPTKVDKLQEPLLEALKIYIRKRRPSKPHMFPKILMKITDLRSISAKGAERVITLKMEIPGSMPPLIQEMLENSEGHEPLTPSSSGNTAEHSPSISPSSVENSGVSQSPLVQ
Experimental: as §1, §2, §3, §4, §5

[3] = molecular target: T3, RXRΓ (Homo sapiens, UniProt P48443); settings: receptor expressed in Baculovirus; competition with [3H] retinoic acid; Cheng-Prusoff from IC50
T3 construct: made in house; used as extract protein
T3 sequence (P48443 1-463): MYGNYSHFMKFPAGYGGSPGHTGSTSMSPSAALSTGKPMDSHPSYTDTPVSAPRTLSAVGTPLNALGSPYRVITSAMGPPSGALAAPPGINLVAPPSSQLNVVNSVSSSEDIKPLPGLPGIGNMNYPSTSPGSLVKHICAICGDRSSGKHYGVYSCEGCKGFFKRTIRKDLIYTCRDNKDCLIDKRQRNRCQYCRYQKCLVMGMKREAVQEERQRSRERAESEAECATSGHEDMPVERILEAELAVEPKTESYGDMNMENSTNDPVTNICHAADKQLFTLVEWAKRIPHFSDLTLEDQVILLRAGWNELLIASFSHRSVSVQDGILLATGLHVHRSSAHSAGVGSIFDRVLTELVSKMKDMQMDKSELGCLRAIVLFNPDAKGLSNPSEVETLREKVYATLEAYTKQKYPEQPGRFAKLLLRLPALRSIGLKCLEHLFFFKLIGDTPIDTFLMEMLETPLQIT
Experimental: as §1, §2, §3, §4, §5

[4] = receptor expressed in Baculovirus, competition with [3H] retinoic acid, Cheng-Prusoff from IC50, read-out: Kd RARΓ

| pKd [1, 4] | pKd [2] | pKd [3] | Structure (SMILES) | pKd [1] |
| --- | --- | --- | --- | --- |
| < 6.00 | 6.32 | < 6.00 | CC1(C)CCC(C)(C)c2cc(C(=O)Nc3ccc(C(=O)O)c(F)c3)ccc21 [Compound 2] |  |
| 7.02 | 7.64 | < 6.00 | CC1(C)CCC(C)(C)c2cc(C(=O)Nc3ccc(C(=O)O)cc3)c(F)cc21 [Compound 4] |  |
| < 6.00 | < 6.00 | < 6.00 | CC1(C)CCC(C)(C)c2c(Br)cc(C(=O)Nc3ccc(C(=O)O)c(F)c3)cc21 [Compound 6] |  |
| < 6.00 | < 6.00 | < 6.00 | CC1(C)CC(C)(C)c2cc(C(=O)Nc3ccc(C(=O)O)c(F)c3)cc(Br)c2O1 [Compound 12] |  |
| < 6.00 | < 6.00 | < 6.00 | CC1(C)CC(C)(C)c2cc(C(=O)Nc3ccc(C(=O)O)c(F)c3)cc(C(F)(F)F)c2O1 [Compound 14] |  |
| < 6.00 | < 6.00 | < 6.00 | CC1(C)CC(C)(C)c2cc(C(=O)Nc3ccc(C(=O)O)c(F)c3)cc(N=[N+]=[N-])c2O1 [Compound 16, 2-Fluoro-4-[(21′,2′,4′,4′-tetramethyl-8′-azidochroman-6′-yl)carbamoyl]benzoic Acid] |  |
| < 6.00 | < 6.00 | < 6.00 | CC1(C)CC(C)(C)c2cc(C(=O)Nc3cc(F)c(C(=O)O)c(F)c3)cc(C(F)(F)F)c2O1 [Compound 18, 2,6-Difluoro-4-[(2′,2′,4′,4′-tetramethyl-8′-trifluoromethylchroman-6′-yl)carbamoyl]benzoic Acid] |  |
| < 6.00 | < 6.00 | < 6.00 | CC1(C)CC(C)(C)c2cc(C(=O)Nc3ccc(C(=O)O)c(F)c3)cc(I)c2O1 [Compound 20] |  |
| < 6.00 | < 6.00 | < 6.00 | Cc1cc(C(=O)Nc2ccc(C(=O)O)c(F)c2)cc2c1OC(C)(C)CC2(C)C [Compound 22] |  |
| < 6.00 | < 6.00 | < 6.00 | CC1(C)CCC(C)(C)c2cc(C(=S)Nc3ccc(C(=O)O)cc3)ccc21 [Compound 26] |  |
| < 6.00 | < 6.00 | < 6.00 | CC1(C)CC(C)(C)c2cc(C(=O)Nc3ccc(C(=O)O)c(F)c3)ccc2O1 [Compound 32] |  |
| < 6.00 | < 6.00 | < 6.00 | CC1(C)CCC(C)(C)c2cc(C(=O)Nc3cc(F)c(C(=O)O)c(F)c3)ccc21 [Compound 38] |  |

| Structure (SMILES) | pKd [1, 4] | pKd [2] | pKd [3] | pKd [1] |
| --- | --- | --- | --- | --- |
| CC1(C)CCC(C)(C)c2cc(C(=O)Nc3ccc(C(=O)O)c(F)c3)c(O)cc21 [Compound 8] | < 6.00 | < 6.00 | < 6.00 |  |
| CC1(C)CCC(C)(C)c2c1cc(C(=O)Nc1cc(F)c(C(=O)O)c(F)c1)c(O)c2Br [Compound 36] |  | < 6.00 | < 6.00 | < 6.00 |
